From ChEMBL document CHEMBL1123515, “Bioisosteric prototype design of biaryl imidazolyl and triazolyl competitive histamine H2-receptor antagonists” (1986) come the findings set out here.

Experiment [1] concerns Canis familiaris. The experiment is described as follows: Maximum percent inhibition of acid output in penta gastrin-stimulated Heidenhain pouch dogs at a dose of 5 mg/kg, given intravenously (iv). The format is functional. As to conditions: Canis lupus familiaris.
In experiment [2] the target is Histamine H2 receptor (Cavia porcellus) (UniProt P47747). Kind of experiment: Histamine H2 receptor antagonistic activity was evaluated in guinea pig atrium. The format is functional, tissue-based. As to conditions: Cardiac atrium.
Histamine H2 receptor (Cavia porcellus), sequence (P47747 whole entry): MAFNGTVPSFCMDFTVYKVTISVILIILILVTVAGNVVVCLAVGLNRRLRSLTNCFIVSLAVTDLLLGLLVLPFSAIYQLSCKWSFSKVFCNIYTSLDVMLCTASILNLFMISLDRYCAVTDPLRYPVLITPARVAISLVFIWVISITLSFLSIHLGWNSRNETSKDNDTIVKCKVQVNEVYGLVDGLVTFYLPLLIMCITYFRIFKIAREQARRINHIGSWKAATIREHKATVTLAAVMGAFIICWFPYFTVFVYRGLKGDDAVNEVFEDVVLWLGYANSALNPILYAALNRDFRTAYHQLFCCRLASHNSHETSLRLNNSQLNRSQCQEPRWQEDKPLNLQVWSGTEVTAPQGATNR
For experiment [3], the system named is Canis familiaris. The experiment is described as follows: Maximum percent inhibition of acid output in penta gastrin-stimulated Heidenhain pouch dogs at a dose of 1 mg/kg, given intravenously (iv). The format is functional. Conditions: Canis lupus familiaris.
Experiment [4] relates to Canis familiaris. Kind of experiment: Maximum percent inhibition of acid output in penta gastrin-stimulated Heidenhain pouch dogs at a dose of 7 mg/kg, given intravenously (iv). The format is functional. As to conditions: Canis lupus familiaris.
For experiment [5], the system named is Canis familiaris. Kind of experiment: Maximum percent inhibition of acid output in penta gastrin-stimulated Heidenhain pouch dogs at a dose of 10 mg/kg, given intravenously (iv). As to conditions: Canis lupus familiaris. The format is functional.
Experiment [6] has as its system Canis familiaris. Kind of experiment: Effective dose on oral administration was evaluated for the inhibition of acid output in penta gastrin stimulated Heidenhain pouch dogs. The format is functional. As to conditions: Canis lupus familiaris.
In experiment [7] the test system is Canis familiaris. Kind of experiment: Maximum percent inhibition of acid output in penta gastrin-stimulated Heidenhain pouch dogs at a dose of 0.5 mg/kg, given intravenously (iv). As to conditions: Canis lupus familiaris. The format is functional.
In experiment [8] the test system is Canis familiaris. Kind of experiment: Effective dose on intravenous administration was evaluated for the inhibition of acid output in penta gastrin stimulated Heidenhain pouch dogs. The format is functional. Conditions: Canis lupus familiaris.

Turning to `CCNc1cc(-c2c[nH]c(C/N=C(\NC)NC#N)n2)ccn1`, at 5 mg/kg the inhibition in vivo in the experiment with Canis familiaris [1] was 32%.

As to `CCNc1cc(-c2c[nH]c(CC/N=C(\S)NC)n2)ccn1`, the inhibition in vivo at 5 mg/kg with Canis familiaris [1] turned out to be 47%. The molecule also returned a Kb in experiment [2] of 0.55 µM.

For the molecule `Cc1n[nH]c(-c2csc(N=C(N)N)n2)n1`, testing at 1 mg/kg in the experiment with Canis familiaris [3] gave an inhibition in vivo of 50%.

Regarding `CCNc1cc(-c2n[nH]c(CC/N=C(/NC)NC#N)n2)ccn1`, at 7 mg/kg the inhibition in vivo in the experiment with Canis familiaris [4] was 0%. The molecule further gave an antagonist equilibrium constant (Kb) in experiment [2] of 1.24 µM.

`CCNc1cc(-c2n[nH]c(CCCC/N=C(\S)NC)n2)ccn1`: in the experiment with Canis familiaris [1], at 5 mg/kg the inhibition in vivo was 27%.

In the experiment on Canis familiaris [5], `C/N=C(\S)NCc1cc(-c2n[nH]c(N)n2)ccn1` came in with an inhibition in vivo at 10 mg/kg of 19%.

On to `N=C(N)Nc1nc(-c2c[nH]c(N)n2)cs1`, for which at 1 mg/kg the inhibition in vivo in the experiment with Canis familiaris [3] was 96%.

Regarding `CCNc1cc(-c2n[nH]c(CC/N=C(\S)NC)n2)ccn1`, in the experiment on Canis familiaris [3], the inhibition in vivo at 1 mg/kg amounted to 59%. This molecule registered an antagonist dissociation constant (Kb) in experiment [2] of 0.69 µM.

In turn, `CCNc1cc(-c2n[nH]c(C/N=C(/S)NC)n2)ccn1` displayed an inhibition in vivo at 10 mg/kg in the experiment on Canis familiaris [5] of 48%.

For the molecule `CN/C(=N\CCSCc1nc[nH]c1C)NC#N` [CIMETIDINE], the inhibition in vivo at 10 mg/kg in the experiment on Canis familiaris [5] stood at 1.02%. The 50% effective dose (ED50) in the experiment with Canis familiaris [6] was determined as 1.32 mg/kg.

For `N=C(N)Nc1nc(-c2n[nH]c(N)n2)cs1`, at 1 mg/kg the inhibition in vivo in the experiment with Canis familiaris [3] was 58%.

Molecule `CCNc1cc(-c2c[nH]c(C/N=C(/S)NC)n2)ccn1` gave an inhibition in vivo at 5 mg/kg in the experiment with Canis familiaris [1] of 54%.

In the case of `Cc1ncc(-c2csc(N=C(N)N)n2)[nH]1` [ZALTIDINE], the inhibition in vivo at 0.5 mg/kg in the experiment with Canis familiaris [7] is 90%. Also, the Kb in experiment [2] was determined as 0.018 µM. Besides, it took a dose of 0.27 mg/kg to reach the 50% effect level in the experiment on Canis familiaris [6] (ED50).

`CCNc1cc(-c2n[nH]c(N)n2)ccn1` displayed a median effective dose (ED50) with Canis familiaris [8] of 0.87 mg/kg.

In turn, `CCNc1cc(-c2n[nH]c(CCC/N=C(/S)NC)n2)ccn1` came in with an inhibition in vivo at 1 mg/kg in the experiment with Canis familiaris [3] of 20%.

Turning to `CCNc1cc(-c2n[nH]c(CCCC/N=C(/NC)NC#N)n2)ccn1`, the inhibition in vivo at 10 mg/kg with Canis familiaris [5] amounted to 16%.

Turning to `CCNc1cc(-c2n[nH]c(C/N=C(\NC)NC#N)n2)ccn1`, in the experiment on Canis familiaris [5], at 10 mg/kg the inhibition in vivo was 0%.

For `CNC(=C[N+](=O)[O-])NCCSCc1ccc(CN(C)C)o1`, the Kb in experiment [2] stood at 0.166 µM.

In the experiment with Canis familiaris [3], `N=C(N)Nc1nc(-c2c[nH]cn2)cs1` gave an inhibition in vivo at 1 mg/kg of 95%.
